These results are taken from ChEMBL document CHEMBL1133333, “Structural comparison between type I and type II antagonists: possible implications in the drug design of AT1 antagonists” (Bioorg Med Chem Lett, 2000).

The assay has as its target T1, Angiotensin II receptor (AT-1) type-1 (Rattus norvegicus, UniProt P29089+P25095).
T1 sequence (P29089 whole entry): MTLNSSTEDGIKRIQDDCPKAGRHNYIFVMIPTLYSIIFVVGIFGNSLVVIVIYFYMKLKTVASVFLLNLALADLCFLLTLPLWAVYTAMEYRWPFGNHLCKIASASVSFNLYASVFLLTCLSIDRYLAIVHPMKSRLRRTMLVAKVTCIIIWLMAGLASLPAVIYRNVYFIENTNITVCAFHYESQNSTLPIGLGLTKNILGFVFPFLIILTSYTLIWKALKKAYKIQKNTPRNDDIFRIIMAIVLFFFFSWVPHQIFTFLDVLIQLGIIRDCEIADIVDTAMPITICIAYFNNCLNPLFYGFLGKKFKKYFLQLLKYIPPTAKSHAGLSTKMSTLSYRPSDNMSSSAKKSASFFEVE
T1 sequence (P25095 whole entry): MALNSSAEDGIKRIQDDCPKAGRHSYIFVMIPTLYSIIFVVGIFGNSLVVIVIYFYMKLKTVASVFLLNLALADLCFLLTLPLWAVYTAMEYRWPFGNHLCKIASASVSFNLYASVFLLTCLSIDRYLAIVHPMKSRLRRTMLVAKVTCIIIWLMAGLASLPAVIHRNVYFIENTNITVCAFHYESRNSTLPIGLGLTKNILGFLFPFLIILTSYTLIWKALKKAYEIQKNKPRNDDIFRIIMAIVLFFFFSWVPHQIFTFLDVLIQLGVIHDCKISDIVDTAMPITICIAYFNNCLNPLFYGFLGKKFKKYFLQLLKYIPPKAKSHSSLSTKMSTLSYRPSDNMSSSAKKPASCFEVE
Briefly: Antagonistic activity against Angiotensin II receptor type 1 in rat uterus. In kind it is functional, tissue-based.

On to `CC[C@H](C)[C@H](NC(=O)[C@H](Cc1ccc(O)cc1)NC(=O)[C@@H](NC(=O)[C@H](CCCN=C(N)N)NC(=O)[C@@H](N)CC(=O)O)C(C)C)C(=O)N[C@@H](Cc1c[nH]cn1)C(=O)N1CCC[C@H]1C(=O)N[C@@H](CCO)C(=O)O`, for which the pA2 (as a rule, a measure of antagonist potency on a negative log scale) came out at 6.7.
Regarding `CC[C@H](C)[C@H](NC(=O)[C@H](Cc1ccc(OC)cc1)NC(=O)[C@@H](NC(=O)[C@@H](N)CCCN=C(N)N)C(C)C)C(=O)N[C@@H](Cc1c[nH]cn1)C(=O)N1CCC[C@H]1C(=O)N[C@@H](CCO)C(=O)O`, the pA2 is reported as < 4.8.
In the case of `CC[C@H](C)[C@H](NC(=O)[C@@H]1CCCN1C(=O)[C@H](Cc1c[nH]cn1)NC(=O)[C@@H](NC(=O)[C@H](Cc1ccc(OC)cc1)NC(=O)[C@@H](NC(=O)[C@H](CCCN=C(N)N)NC(=O)CNC)C(C)C)[C@@H](C)CC)C(=O)O` it was 6.6; in that of `CC[C@H](C)[C@H](NC(=O)[C@H](Cc1ccc(OC)cc1)NC(=O)[C@@H](NC(=O)[C@H](CCCN=C(N)N)NC(=O)CNC)C(C)C)C(=O)N[C@@H](Cc1c[nH]cn1)C(=O)N1CCC[C@H]1C(=O)N[C@@H](Cc1ccccc1)C(=O)O`, 7.5; in that of `CC[C@H](C)[C@H](NC(=O)[C@H](Cc1ccc(O)cc1)NC(=O)[C@@H](NC(=O)[C@@H](N)CCCN=C(N)N)C(C)C)C(=O)N[C@@H](Cc1c[nH]cn1)C(=O)N1CCC[C@H]1C(=O)N[C@@H](CCO)C(=O)O`, < 4.8.
`CC[C@H](C)[C@H](NC(=O)[C@H](Cc1ccc(OC)cc1)NC(=O)[C@@H](NC(=O)[C@H](CCCN=C(N)N)NC(=O)CNC)C(C)C)C(=O)N[C@@H](Cc1c[nH]cn1)C(=O)N1CCC[C@H]1C(=O)N[C@@H](CCO)C(=O)O` yielded a pA2 of 5.7.
In the case of `CC[C@H](C)[C@H](NC(=O)[C@H](Cc1ccc(OC)cc1)NC(=O)[C@@H](NC(=O)[C@H](CCCN=C(N)N)NC(=O)[C@@H](N)CC(=O)O)C(C)C)C(=O)N[C@@H](Cc1c[nH]cn1)C(=O)N1CCC[C@H]1C(=O)N[C@@H](CCO)C(=O)O` it was 5.4.
Under `CC[C@H](C)[C@H](NC(=O)[C@H](Cc1ccc(O)cc1)NC(=O)[C@@H](NC(=O)[C@H](CCCN=C(N)N)NC(=O)CNC)C(C)C)C(=O)N[C@@H](Cc1c[nH]cn1)C(=O)N1CCC[C@H]1C(=O)N[C@@H](CCO)C(=O)O` stands 7.8.
